Data set [1] in a line: dissolution of mirtazapine before and after micronization. The class given is physicochemical. The note with it: compared to mirtazapine prior to micronization. The text has this: FIG. 1 is a graph of the dissolution data of mirtazapine before and after micronization. FIG. 2 is a graph of the percent of dissolved mirtazapine before and after micronization. FIG. 3 is a graph of showing the dissolution time and standard deviations of the dissolution results before and after micronization. […] This is valuable improvement provides for more accurate dosing of mirtazapine.

For data set [2] the following is noted: cited from earlier work.

The structures appear in SMILES notation. “Also recorded” adds a separate entry of the source.

Turning to `CN1CCN2c3ncccc3Cc3ccccc3C2C1` (centres unmarked) [micronized mirtazapine], the dissolution profile entry in data set [1] is “superior dissolution profile; also recorded: more stable and reproducible dissolution profile”.
With `CN1CCN2c3ncccc3Cc3ccccc3C2C1` (centres unmarked) [Mirtazapine, 1,2,3,4,10,14b-hexahydro-2-methyl-pyrazino [2,1-a]pyrido[2,3-c][2] benzazepine], in data set [2], the solubility in water result is “essentially insoluble in water”.

These data come from patent US20020072602A1, “Micronized mirtazapine” (priority 2000, published 2002).
